In the experiment the target is T1, CYP51Dt (D. transversa sterol 14α-demethylase).
T1 construct: gene CYP51; C-terminal hexa-histidine tag
In words: UV–visible difference spectroscopy titration (type I spectrum) of purified P450; also turnover with CPRDt/NADPH by GC–MS. In kind it is binding, Dioscorea transversa.

`C=C(CC[C@@H](C)[C@H]1CC[C@@]2(C)C3=C(CC[C@]12C)[C@@]1(C)CC[C@H](O)[C@@H](C)[C@@H]1CC3)C(C)C` [compound 7, obtusifoliol] registered a Kd of 800 ± 250 nM.

`CC(C)CCC[C@@H](C)[C@H]1CC[C@@]2(C)C3=C(CC[C@]12C)[C@@]1(C)CC[C@H](O)[C@@H](C)[C@@H]1CC3` [compound 19, 4-desmethyl-24,25-dihydrolanosterol] yielded a Kd of 2400 ± 180 nM.

Usually Kd stands for the free concentration of one partner at which half of the binding sites on the other are occupied at equilibrium, for simple one-to-one binding. Read a high Kd as weaker binding.

The record behind these values is paper PMC10267570, “Characterization of the cholesterol biosynthetic pathway in Dioscorea transversa” (The Journal of Biological Chemistry, 2023).
